Reference: article PMC11241267, “Prokaryotic Expression and Functional Verification of Antimicrobial Peptide LRGG” (International Journal of Molecular Sciences, 2024)
Where no end group is shown, it is not given here.

Legend:
[1] = tested on: Eschericha coli ATCC25922; experiment: Serum stability (MIC at different serum concentrations); type: cell-based; details: triplicate; for MIC value in 5% serum: fetal bovine serum 5%; for MIC value in 10% serum: fetal bovine serum 10%; for MIC value in 20% serum: fetal bovine serum 20%; for MIC value in 40% serum: fetal bovine serum 40%; for MIC value in 50% serum: fetal bovine serum 50%; for MIC value, Control: untreated peptide, Table 5 control
Method: (§1) The strains kept at −80 °C were reactivated, plated, and incubated overnight at 37 °C. Single colonies were picked, inoculated into 5 mL of MH medium, and cultured until they reached OD600 = 0.5. The bacterial suspensions were then diluted to 1 × 10^5 CFU/mL, and 50 μL was added to wells 1–11. Then, 50 μL and 100 μL of deionized water were added to wells […], respectively, to provide a positive and a negative control. The concentration of peptide present in the first non-turbid well in which bacterial growth was inhibited was taken as the minimal inhibitory concentration (MIC). This experiment was repeated three times.
(§2) The efficacy of the chemically synthesized and in vivo-expressed LRGG peptide were tested for their efficacy against Eschericha coli ATCC 25922 under various conditions, such as heat and different pH conditions, before determining their MIC in triplicate. In one case, the peptides were placed in ice-cold water at 0 °C and heated to 37 °C and 100 °C for 30 min each, and their efficacy was compared to that of an untreated control group. This process was repeated three times. In another case, the peptides were exposed for one hour to pH values of 4, 6, 8, and 10, and their activity was compared to that of an untreated control group. In another set of experiments, the peptides were mixed and incubated with 1 mg/mL of four different proteases. After inactivation of the enzymes, the peptides were tested for their efficacy against Eschericha coli ATCC 25922. The peptides were also tested after mixing with various salt solutions and concentrations of fetal bovine serum at concentrations ranging from 5% to 50%. In all cases, the MIC were determined in triplicate using untreated antimicrobial peptides as controls.

[2] = tested on: Eschericha coli ATCC25922; experiment: Salt ion stability (MIC in salt solutions); type: cell-based; design: unit not given here; details: triplicate; for MIC value with MgCl2: 1 mM MgCl2; for MIC value with CaCl2: 2.5 mM CaCl2; for MIC value with KCl: 4.5 mM KCl; for MIC value with NH4Cl: 6 mM NH4Cl; for MIC value with NaCl: 150 mM NaCl; for MIC value, Control: untreated peptide, Table 4 control
Method: as §1, §2

[3] = tested on: Eschericha coli ATCC25922; experiment: Temperature and pH stability (MIC after treatment); type: cell-based; design: MIC value, Control (pH 7) / MIC value after 0 °C / MIC value after 37 °C / MIC value after 100 °C / MIC value after pH 4 / MIC value after pH 6 / MIC value after pH 8 / MIC value after pH 10: unit not given beside the values; details: for MIC value after pH 4: peptide exposed for one hour to pH 4; for MIC value after pH 4 / MIC value after pH 6 / MIC value after pH 8 / MIC value after pH 10 / MIC value after 37 °C / MIC value after 100 °C / MIC value after 0 °C / MIC value, Control (pH 7): triplicate; for MIC value after pH 6: peptide exposed for one hour to pH 6; for MIC value after pH 8: peptide exposed for one hour to pH 8; for MIC value after pH 10: peptide exposed for one hour to pH 10; for MIC value after 37 °C: peptide heated to 37 °C for 30 min before MIC; for MIC value after 100 °C: peptide heated to 100 °C for 30 min before MIC; for MIC value after 0 °C: peptide in ice-cold water at 0 °C for 30 min before MIC; for MIC value, Control (pH 7): untreated peptide, Table 2 control; for increase of MIC value at 100 °C: versus untreated control
Method: as §1
as §2, with “In another case, the peptides were exposed for one hour to pH values of 4, 6, 8, and 10, and their activity was compared to that of an untreated control group.” left out

[4] = tested on: Eschericha coli ATCC25922; experiment: Protease stability (MIC after protease treatment); type: cell-based; design: MIC value, Control: unit not given beside the values; details: triplicate; for MIC value after Papain: peptide incubated with 1 mg/mL papain; for MIC value after Papain / MIC value after Pepsin / MIC value after Protease K / MIC value after Trypsin: enzyme inactivated before MIC; for MIC value after Pepsin: peptide incubated with 1 mg/mL pepsin; for MIC value after Protease K: peptide incubated with 1 mg/mL protease K; for MIC value after Trypsin: peptide incubated with 1 mg/mL trypsin; for MIC value, Control: untreated peptide, Table 3 control
Method: as §1, §2

[5] = tested on: AB-strain zebrafish embryos; experiment: Embryotoxicity in zebrafish; type: in vivo; details: embryos at 28 °C for approximately 2–3 days, light microscope; for zebrafish morphology (embryotoxicity): 1 × MIC
Method: A sodium dehydroacetate solution of 200 μg/mL served as the positive control, while the negative control group contained only culture medium. The embryos were cultured in a constant temperature incubator at 28 °C for approximately 2–3 days, and their morphology after fertilization was observed using a light microscope.

[6] = tested on: Eschericha coli ATCC25922; experiment: Plasma membrane potential (diSC3-5); type: cell-based; details: 1–8 MIC, 0–1500 s, diSC3-5 0.4 μM
Method: To determine whether the expressed antimicrobial peptide LRGG can break bacterial cytoplasmic membranes, diSC3-5 was used as a fluorescent dye to monitor changes in membrane potential. A bacterial suspension was prepared and adjusted to an ABS O.D. of 600 = 0.5. Next, the same volume of bacterial suspension and varying concentrations of expressed antimicrobial peptide LRGG (1–8 MIC) were added to black 96-well plates. A control group was established using PBS, and diSC3-5 dye was added to a final concentration of 0.4 μM and incubated at room temperature in the dark for one hour. Changes in […] between 0 and 1500 s were measured using a fluorescence microplate reader at excitation (622 nm) and emission (670 nm) wavelengths.

[7] = tested on: sheep red blood cells; type: cell-based; details: red cells of sheep
Method: To obtain a suspension containing 2% red blood cells, 15 mL of sheep blood was collected in a tube containing 0.2% sodium heparin anticoagulant and centrifuged at 1000 rpm for 10 min. After discarding the supernatant, the red blood cell pellet was collected, washed twice with sterile phosphate buffered saline (PBS), and resuspended in PBS. […] After the erythrocyte suspension was incubated with the antimicrobial peptide LRGG for one hour at 37 °C, the mixture from each well of the 96-well plate was aspirated and centrifuged at 1000× g for 10 min. The absorbance of the supernatant was then measured at 570 nm, with three repeats and averaging. Finally, the hemolytic index was calculated as follows: Hemolytic index (%) = (O.D. peptide − O.D. PBS)/(O.D. TritonX − 100 − O.D. PBS) × 100%.

Compound	MIC value in 5% serum [1]	MIC value in 10% serum [1]	MIC value in 20% serum [1]	MIC value in 40% serum [1]	MIC value in 50% serum [1]	MIC value, Control [1]	MIC value with MgCl2 [2]	MIC value with CaCl2 [2]	MIC value with KCl [2]	MIC value with NH4Cl [2]	MIC value with NaCl [2]	MIC value, Control [2]	MIC value after pH 4 [3]	MIC value after pH 6 [3]	MIC value after pH 8 [3]	MIC value after pH 10 [3]	MIC value after 37 °C [3]	MIC value after 100 °C [3]	MIC value after 0 °C [3]	MIC value, Control (pH 7) [3]	further results
GLLRLLRRGGRRLLRLL [Expressed LRGG]	2	4	32	32	32	2	8	4	8	4	8	4	2	4	2	16	4	8	2	2	increase of MIC value at 100 °C [3]: four-fold; MIC value after Papain [4]: >64; MIC value after Pepsin [4]: >128; MIC value after Protease K [4]: >64; MIC value after Trypsin [4]: >128; MIC value, Control [4]: 4; zebrafish morphology (embryotoxicity) [5]: did not change the morphology of the zebrafish; diSC3-5 fluorescence value (cytoplasmic membrane potential) [6]: gradually increased; hemolytic index [7]: less than 10%
H-LLRLLRRGGRRLLRLL-NH2 [Chem. Syn. LRGG]	2	2	8	16	16	2	4	4	2	2	8	2	2	2	4	4	2	8	2	2	increase of MIC value at 100 °C [3]: four-fold; MIC value after Papain [4]: >64; MIC value after Pepsin [4]: >128; MIC value after Protease K [4]: >64; MIC value after Trypsin [4]: >128; MIC value, Control [4]: 2; zebrafish morphology (embryotoxicity) [5]: did not change the morphology of the zebrafish
CC(=O)c1c([O-])cc(C)oc1=O.[Na+] [sodium dehydroacetate, reference compound]																					zebrafish morphology (embryotoxicity), positive control ([5]; 200 μg/mL): significant hemorrhage and severe bending of the fish
